Key:
[1] = system: cultured human mast cells (CHMC); test: CHMC low cell density IgE activation: tryptase assay; assay type: cell-based
Procedure, shortened: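 Degranulation was triggered with anti-IgE for 30 minutes at 37° C in cultured human mast cells seeded at low density (1000-1500 cells/well, chosen by donor) after a 1 hr equilibration in MT buffer. Released tryptase in cleared supernatant was quantified with a tryptase substrate at room temperature for 30 minutes.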

[2] = system: cultured human mast cells (CHMC); test: CHMC low cell density ionomycin activation: tryptase assay; assay type: cell-based
[3] = system: cultured human mast cells (CHMC); test: CHMC high cell density IgE activation: hexos; assay type: cell-based
Procedure: (§1) After sensitizing, cells are counted, pelleted (1000 rpm, 5-10 minutes), and resuspended at 1-2 ×10^6 cells/ml in MT buffer. Add 100 ul of cell suspension to each well and 100 ul of compound dilutions. The final vehicle concentration is 0.5% DMSO. Incubate at 37° C. (5% CO2) for 1 hour. After 1 hour of compound treatment, stimulate cells with 6× anti-IgE. Mix wells with the cells and allow plates to incubate at 37° C. (5% CO2) for one hour. After 1 hour incubation, pellet cells (10 minutes, 1000 RPM) and collect 200 ul per well of the supernatant, being careful not to disturb pellet. Place the supernatant plate on ice. During the 7-hour step (see next) perform tryptase assay on supernatant that had been diluted 1:500. Resuspend cell pellet in 240 ul of CM media containing 0.5% DMSO and corresponding concentration of compound. Incubate CHMC cells for 7 hours at 37° C. (5% CO2). After incubation, pellet cells (1000 RPM, 10 minutes) and collect 225 ul per well and place in −80° C. until ready to perform ELISAS. ELISAS are performed on appropriately diluted samples (determined empirically for each donor cell population so that the sample measurement falls within the standard curve) following the supplier's instructions.
(§2) Add 50 uL of BMMC cell supernatant (see above) to the hexoseaminidase substrate, place at 37° C. for 30 minutes and read the plate at 5, 10, 15, and 30 minutes on a spectrophotometer.

[4] = system: cultured human mast cells (CHMC); test: CHMC high cell density IgE activation: tryptase; assay type: cell-based
Procedure: as §1

[5] = system: cultured human mast cells (CHMC); test: CHMC high cell density IgE activation: histamine; assay type: cell-based
Procedure: as §1

[6] = system: cultured human mast cells (CHMC); test: CHMC high cell density IgE activation: LTC4; assay type: cell-based
Procedure: as §1

[7] = system: cultured human mast cells (CHMC); test: CHMC high cell density IgE activation: TNFalpha; assay type: cell-based; details: read-out: CHMC high density TNF-alpha
Procedure: as §1

[8] = system: Human Jurkat T-cells (clone N); test: Jurkat T-cell activation (anti-TCR, CD69 upregulation); assay type: cell-based
Procedure, shortened: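 Readout is CD69 upregulation by flow cytometry (anti-CD69-APC, 20 min at 4 °C) after 20 h anti-TCR (C305, 500 ng/ml) stimulation at 37 °C.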

Primary T-cells = test: Primary T-cell cytokine production (αCD3/αCD28): IL-2; assay type: cell-based, human; details: read-out: 1° T-Cell IL2 IC50
Procedure: 2E8-4E8 PBMC or proliferating T cells grown in rIL-2 from healthy human donors were suspended in PBS were spun down (1500 rpm, 8-10 minutes) and resuspended in 100 ml RPMI Complete media (1% Pen-Strep, 1% L-Glutamine, 10 mM HEPES). The cells were plated in T175 flasks (37° C., 5% CO2) and monocytes were allowed to adhere for 2-3 hours. After monocyte attachment, non-adherent cells were harvested, counted by hemocytometer, washed several times with PBS then resuspended in Yssels Complete Media (Modified IMDM Media with 1% Human AB Serum, 1% Pen-Strep, 1% L-Glutamine, 10 mM HEPES) at […]. 90 uL of the cell dilution were then added to compounds diluted to 2× in Yssel's media and incubated for 30 minutes at 37° C. (5% CO2). After this preincubation step the compound/cell mixture was transferred to stimulation plates, as described below.
Stimulation plates were prepared by coating 96 well plates with 5 μg/ml αCD3 (BD PharMingen, Catalog #555336)+10 μg/ml αCD28 (Beckman Coulter, Catalog #IM1376) in PBS (no Ca^2+/Mg^2+) at 37° C. (5% CO2) for at 3-5 hours. After incubation with the stimulation antibodies, the cocktail was removed and the plates washed 3 times with PBS prior to addition of the primary T cell/compound mixture.
The compound/cell mixture was transferred to the stimulation plates and incubated for 18 hr at 37° C. (5% CO2). After the cell stimulation, ˜150 μl supernatant were transferred from each well into 96-well filter plates (Coming PVDF Filter Plates) spun down (2000 rpm, 2-3 minutes) and either used immediately for ELISA or LUMINEX measurements or frozen down at −80° C. for future use.
IL-2 ELISAs were performed using the Quantikine Human IL-2 ELISA kit (R&D Systems, Catalog # D2050) as described by the manufacturer and absorption was measured on a spectrophotometer at 450 nm wavelength. Blank values were substracted and absorbances were converted to pg/mL based on the standard curve.
Luminex immunoassay multiplexing for TNF, IL-2, GMSCF, IL-4 and IFNg was performed essentially as described by the manufacturer (Upstate Biotechnology). Essentially 50 uL of sample was diluted into 50 uL assay diluent and 50 uL incubation buffer, then incubated with 100 uL of the diluted detection antibody for 1 hr at RT in the dark. The filter plate was washed 2× in Wash Buffer, then incubated with 100 uL of the diluted secondary reagent (SAV-RPE) for 30 min at RT in the dark. Finally the plates were washed 3 times and bead identification and RPE fluorescent measured by the Luminex instrument.
Varied concentrations of compound were compared to solvent only to determine the inhibition of T-cell activation IC50 of each compound.

[9] = system: bone marrow derived mast cells (BMMC); test: BMMC high cell density IgE activation: hexosaminidase; assay type: cell-based, mouse; details: high cell density; read-out: BMMC anti-IgE Hexos.
Procedure: (§3) After sensitizing, cells are counted, pelleted (1000 rpm, 5-10 minutes), and resuspended at 1-3×10^6 cells/ml in MT buffer. Add 100 ul of cell suspension to each well and 100 ul of compound dilutions. The final vehicle concentration is 0.5% DMSO. Incubate at 37° C. (5% CO2) for 1 hour. After 1 hour of compound treatment, stimulate cells with 6× stimulus (60 ng/ml DNP-BSA). Mix wells with the cells and allow plates to incubate at 37° C. (5% CO2) for one hour. After 1 hour incubation, pellet cells (10 minutes, 1000 RPM) and collect 200 ul per well of the supernatant, being careful not to disturb pellet, and transfer to a clean tube or 96-well plate. Place the supernatant plate on ice. During the 4-5 hour step (see next) perform the hexosiminidase assay. Resuspend cell pellet in 240 ul WEI-conditioned media containing 0.5% DMSO and corresponding concentration of compound. Incubate BMMC cells for 4-5 hours at 37° C. (5% CO2). After incubation, pellet cells (1000 RPM, 10 minutes) and collect 225 ul per well and place in −80° C. until ready to perform ELISAS. ELISAS are performed on appropriately diluted samples (determined empirically for each donor cell population so that the sample measurement falls within the standard curve) following the supplier's instructions.
as §2

[10] = system: bone marrow derived mast cells (BMMC); test: BMMC high cell density IgE activation: TNFalpha; assay type: cell-based, mouse; details: high cell density; read-out: BMMC anti-IgE TNF-alpha
Procedure: as §3

[11] = system: bone marrow derived mast cells (BMMC); test: BMMC high cell density IgE activation: IL-6; assay type: cell-based, mouse; details: high cell density; read-out: BMMC anti-IgE IL-6
Procedure: as §3

Syk kinase = target: T1, Syk kinase (Homo sapiens, UniProt P43405); test: Syk kinase biochemical fluorescence polarization assay; details: isolated Syk kinase, fluorescence polarization, 4 uM ATP
T1 construct: purchased Upstate, Lake Placid NY

[12] = system: cultured human mast cells (CHMC); test: CHMC low cell density IgE activation: LTC4 assay; assay type: cell-based; details: anti-IgE activation, LTC4 release
Procedure: Pellet CHMC cells (980 rpm, 10 min) and resuspend in pre-warmed MT. Add 65 ul of cells to each 96-well plate. Depending on the degranulation activity for each particular CHMC donor, load 1000-1500 cells/well. Mix four times followed by a 1 hr incubation at 37° C. […] Stimulate cells by adding 25 ul of 6× anti-IgE solution to the appropriate plates. Add 25 ul MT to un-stimulated control wells. Mix twice following addition of the anti-IgE. Incubate at 37° C. for 30 minutes. […] Spin plates at 1000 rpm for 10 min to pellet cells. Transfer 25 ul of supernatant to a 96-well black bottom plate and add 100 ul of freshly diluted tryptase substrate solution to each well. Incubate plates at room temperature for 30 min.
Leukotriene C4 (LTC4) is also quantified using an ELISA kit on appropriately diluted supernatant samples (determined empirically for each donor cell population so that the sample measurement falls within the standard curve) following the supplier's instructions.

[13] = system: cultured human mast cells (CHMC); test: CHMC high cell density IgE activation: IL-13; assay type: cell-based
Procedure: as §1

[14] = Low Density CHMC, anti-IgE activation, tryptase release, read-out: CHMC anti-IgE Tryptase IC50
[15] = Low Density CHMC, ionomycin activation, tryptase release, read-out: CHMC Ionomycin Tryptase IC50
[16] = low cell density, read-out: CHMC Ionomycin Tryptase

| Compound | IC50 [1, 14] | IC50 [2, 15] | IC50 [3] | IC50 [4] | IC50 [5] | IC50 [6] | IC50 [7] | IC50 [8] | IC50 (Primary T-cells) | IC50 ([1]; low cell density, read-out: CHMC anti-IgE Tryptase) | IC50 [2, 16] | IC50 [9] | IC50 [10] | IC50 [11] | IC50 (Syk kinase) | IC50 [12] | IC50 [13] | IC50 ([2]; Low Density, read-out: CHMC Ionomycin Tryptase) |
| --- | --- | --- | --- | --- | --- | --- | --- | --- | --- | --- | --- | --- | --- | --- | --- | --- | --- | --- |
| COC(=O)c1cc2cc(Nc3ncc(F)c(Nc4ccc(OC(C)C)cc4)n3)ccc2o1 [Compound R926704] | 0.564 µM | > 10 µM | > 2 µM | > 10 µM | > 10 µM | > 10 µM | > 10 µM | 9.27 µM |  |  |  |  |  |  |  |  |  |  |
| CNC(=O)c1cc2cc(Nc3ncc(F)c(Nc4ccc(C(C)(C)C)cc4)n3)ccc2o1 [Compound R926494] | 0.313 µM | > 10 µM | 0.64 µM | > 2 µM | > 10 µM | 0.326 µM | > 10 µM | 12.5 µM |  |  |  |  |  |  |  | 0.078 µM |  |  |
| COC(=O)c1cc2cc(Nc3ncc(F)c(Nc4cccc(O)c4)n3)ccc2o1 [Compound R926614] | 0.228 µM | > 10 µM | > 10 µM | > 10 µM |  |  | > 10 µM | 6.54 µM |  |  |  |  |  |  |  |  | 6.44 µM |  |
| CNC(=O)c1cc2cc(Nc3ncc(F)c(Nc4ccc5c(c4)OCCO5)n3)ccc2o1 [Compound R926496] | 0.571 µM | > 10 µM | 0.429 µM | 0.533 µM | 0.809 µM | 0.414 µM | 0.622 µM | 4.39 µM |  |  |  |  |  |  |  |  |  |  |
| CC(C)Oc1ccc(Nc2nc(Nc3ccc4oc(CO)cc4c3)ncc2F)cc1 [Compound R926705] | 0.263 µM | > 10 µM | 1.01 µM | 1.26 µM | 0.641 µM | 0.494 µM | > 10 µM | 2.65 µM |  |  |  |  |  |  |  | 0.533 µM |  |  |
| COC(=O)C1Cc2cc(Nc3ncc(F)c(Nc4ccc(OC(C)C)cc4)n3)ccc2O1 (stereo not shown) [Compound R926706] | 0.07 µM | 2.41 µM | > 2 µM | > 10 µM | > 10 µM | 1.49 µM | > 10 µM | > 10 µM |  |  |  |  |  |  |  | 0.078 µM |  |  |

Other lines, results leading:

| IC50 [1, 14] | IC50 [2, 15] | IC50 [3] | IC50 [4] | IC50 [5] | IC50 [6] | IC50 [7] | IC50 [8] | IC50 (Primary T-cells) | IC50 ([1]; low cell density, read-out: CHMC anti-IgE Tryptase) | IC50 [2, 16] | IC50 [9] | IC50 [10] | IC50 [11] | IC50 (Syk kinase) | IC50 [12] | IC50 [13] | IC50 ([2]; Low Density, read-out: CHMC Ionomycin Tryptase) | Compound |
| --- | --- | --- | --- | --- | --- | --- | --- | --- | --- | --- | --- | --- | --- | --- | --- | --- | --- | --- |
|  |  |  |  |  |  |  | > 10 µM | 36.1 µM |  |  |  |  |  |  |  |  |  | Oc1cccc(Nc2nc(Nc3ccc(OCc4nc(-c5ccccc5)no4)cc3)ncc2F)c1 [Compound R935134] |
|  |  |  |  |  |  |  | 0.39 µM |  | 0.047 µM | 2.2 µM | 0.06 µM | 0.07 µM | 0.1 µM | 0.069 µM |  |  |  | COc1c(C)cc(Nc2ncc(F)c(Nc3ccc4c(c3)NC(=O)C(C)(C)O4)n2)cc1Cl [Compound R940361] |
|  |  |  |  |  |  |  | 1.48 µM | 1.5 µM |  |  |  |  |  |  |  |  |  | CNC(=O)COc1cccc(Nc2ncc(F)c(Nc3ccc4cc[nH]c4c3)n2)c1 [Compound R926745] |
|  |  |  |  |  |  |  | > 10 µM | 13.3 µM |  |  |  |  |  |  |  |  |  | Cc1noc(COc2ccc(Nc3nc(Nc4ccc(OC(C)C)cc4)ncc3F)cc2)n1 [Compound R935144] |
|  |  |  |  |  |  |  | > 10 µM |  |  | > 10 µM | 2.44 µM | 1.47 µM | 0.52 µM | 0.45 µM |  |  |  | Cn1ncc2ccc(Nc3ncc(F)c(Nc4ccc(Cl)c(Cl)c4)n3)cc21 [Compound R935393] |
|  |  | > 2 µM | > 2 µM | > 10 µM |  | > 2 µM | 1.88 µM |  |  |  |  |  |  |  |  | > 10 µM | > 10 µM | Cc1cc(Nc2nc(Nc3cccc(OCCN4CCNCC4)c3)ncc2F)cc(C)c1O [Compound R945142] |
